In patent publication US10253041B2, “7-phenylethylamino-4H-pyrimido[4,5-d][1,3]oxazin-2-one compounds and their use as mutant IDH1 inhibitors” (Eli Lilly and Company, priority 2015, dated 2019):
Read-outs that look alike come from different tables or passages of the source.

What was measured:
[1] = tested on: IDH1/R132H in U87MG glioma cells; assay: U87MG/IDH1R132H cell assay (intracellular 2HG); assay type: cell-based; conditions: 1 hour + 18 hours incubation, read-out: U87MG (IDH1/R132H 2-hydroxyglutarate IC50)
Experimental: To test the cellular inhibition of IDH1 mutant R132C, the fibrosarcoma cell line HT1080 (purchased from ATCC) is used. For testing cell-based inhibition of the R132H mutation, the U87MG glioma cell line (ATCC) was stably transfected with a DNA construct expressing the R132H mutant enzyme.
Cells are plated in poly-D-lys coated 96 well plates (12,000 cells/well) 18-24 hours previous to treatment with compounds. Four hours prior to compound treatment, cells are glutamine-starved by removing normal media and replacing with glutamine-free media. Following starvation, cells are then treated with different concentrations of test compounds (20 μM to 1 nM) dissolved in glutamine free media containing DMSO at a final concentration of 0.2%. The initial compound incubation is for 1 hour at 37° C./5% CO2. After 1 hour, glutamine is added to a final 2 mM concentration and the treated cells are then incubated for a further 18 hours at 37° C./5% CO2. Intracellular 2HG is analyzed in cell lysates obtained after media removal and treatment with lysis buffer (25 mM Tris-HCl pH 7.5, 150 mM NaCl, 1 mM EDTA, 1 mM EGTA/1% Triton-X 100). Cell lysates are conserved at −80° C. until processing. For analyte extraction, an aliquot of thawed lysate is transferred to a deep 96-well plate and treated with cold MeOH containing d5-3HG as an internal standard followed by chloroform and H2O (1:4:3:2). The upper phase is collected after separation and injected in HPLC to separate 2HG (and internal standard) using hydrophilic interaction (HILIC) chromatography coupled to MS/MS detection in a 6460 triple quadrupole mass spectrometer. Percent inhibition for each individual sample is obtained after normalizing calculated 2HG concentration to maximum and minimum references obtained in the presence and in the absence of glutamine during cell treatment with compounds. IC50 values are obtained from individual % inhibition using a sigmoidal dose-response 4-parameter equation. These calculations are carried out automatically using Activity Base (IDBS) or Screener (Genedata) data analysis programs.

IDH2 Wild-Type = biological target: T1, IDH2 Wild-Type (Homo sapiens, UniProt P48735); assay: Biochemical assay for wild-type IDH2 enzyme (αKG by LC-MS); conditions: mean ± standard deviation of the mean
T1 construct: His-tag (N); made in house; host or cells: E. coli
T1 sequence (P48735 40-452): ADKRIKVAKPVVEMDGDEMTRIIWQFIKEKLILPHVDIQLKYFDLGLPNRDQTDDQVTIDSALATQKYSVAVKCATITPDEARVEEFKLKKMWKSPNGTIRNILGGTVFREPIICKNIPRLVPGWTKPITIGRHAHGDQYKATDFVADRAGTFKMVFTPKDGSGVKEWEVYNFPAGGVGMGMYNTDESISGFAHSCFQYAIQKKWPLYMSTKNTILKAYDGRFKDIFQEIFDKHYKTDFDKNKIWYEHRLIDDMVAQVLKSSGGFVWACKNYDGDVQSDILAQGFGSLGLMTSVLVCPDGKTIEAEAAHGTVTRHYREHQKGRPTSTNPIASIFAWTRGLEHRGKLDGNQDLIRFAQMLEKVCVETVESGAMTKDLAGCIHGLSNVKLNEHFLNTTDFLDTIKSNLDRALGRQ
Experimental: IDH1 and IDH2 enzymes catalyze the conversion of isocitrate to αKG. Wild-type IDH1 (National Center for Biotechnology Information, Accession: NP_001269316.1) and IDH2 (National Center for Biotechnology Information, Accession: EAX02082.1) proteins containing N-terminal His-tag are expressed in E. coli and purified using nickel affinity chromatography. The enzyme assays are carried out in V-bottom 96 well polypropylene plates containing 100 mM Tris-HCl buffer at pH 7.5, 1 mM DTT, 0.005% TRITON™ X-100, 120 mM NaCl. For the IDH1 wild-type assay isocitrate, NADP^+ and MnCl2 are included at the concentrations of 85 μM, 50 μuM and 20 μM respectively. For the IDH2 wild-type assay isocitrate, NADP^+ and MnCl2 are included at the concentrations of 30 μM, 50 μM and 10 μM respectively. Inhibitors dissolved in a DMSO stock solution are diluted in the reaction mixture at a final DMSO concentration of 4%. The enzyme assay is terminated (quenched) by adding ACN (50:50) containing d6-2-ketopentanedioic acid (d6-αKG) as an internal standard for mass spectrometry analysis. Ten microliters of reaction mixture is combined with 100 μL of water, 50 μL of 1 M O-benzylhydroxylamine in pyridine buffer (8.6% pyridine, pH 5), and 50 μL of 1 M N-(3-dimethylaminopropyl)-N-ethylcarbodiimide hydrochloride (EDC) in pyridine buffer. Following derivatization at room temperature for one hour, samples are extracted with 600 μL of EtOAc. Four hundred […] of the upper layer is removed, dried under heated nitrogen and reconstituted with 100 μL of MeOH/water (1:1). Ten μL of derivatized sample is injected onto an LC-MS system consisting of a Shimadzu Prominence 20A HPLC system and a The Thermo Quantum Ultra™ triple quadrupole mass spectrometer. Analytes are separated on a Waters XBridge™ C18 column (2.1×50 mm, […]) with a flow rate of 0.6 mL/minute. Mobile phase A is 0.1% formic acid in water and mobile phase B is MeOH. The αKG signal detected is transformed into analyte concentration using a calibration curve generated using known αKG concentrations. […] IC50 values are obtained from the individual % inhibition values at different compound concentrations using a 4-parameter equation. These calculations are carried out using Activity Base (IDBS) or Screener (Genedata) data analysis programs.

Row | Structure (SMILES) | IC50 ([1]; Homo sapiens, U-87 MG, 19 h) [nM] | IC50 (IDH2 Wild-Type) [µM] | IC50 [1] [nM] | IC50 ([1]; Homo sapiens, U-87 MG) [nM]
1 | C=CC(=O)N1CCN(Cc2ccc([C@H](C)Nc3ncc4c(n3)N(C(C)C)C(=O)OC4)cc2)CC1 [Example 1, 1-Isopropyl-7-[[(1S)-1-[4-[(4-prop-2-enoylpiperazin-1-yl)methyl]phenyl]ethyl]amino]-4H-pyrimido[4,5-d][1,3]oxazin-2-one] | 2.65 ± 0.07 | 10.7 ± 1.65 | – | –
2 | C=CC(=O)N1CCN(Cc2ccc([C@H](C)Nc3ncc4c(n3)N(CC)C(=O)OC4)cc2)CC1 [Example 2, 1-Ethyl-7-[[(1S)-1-[4-[(4-prop-2-enoylpiperazin-1-yl)methyl]phenyl]ethyl]amino]-4H-pyrimido[4,5-d][1,3]oxazin-2-one] | – | 14.3 ± 3.11 | 5.08 ± 1.65 | –
3 | C=CC(=O)N1CCN(Cc2ccc([C@H](C)Nc3ncc4c(n3)N(CC(C)C)C(=O)OC4)cc2)CC1 [Example 3, 1-Isobutyl-7-[[(1S)-1-[4-[(4-prop-2-enoylpiperazin-1-yl)methyl]phenyl]ethyl]amino]-4H-pyrimido[4,5-d][1,3]oxazin-2-one] | 5.9 | 25.3 ± 21.3 | – | –
4 | C=CC(=O)N1CC(OCc2ccc([C@H](C)Nc3ncc4c(n3)N(CC)C(=O)OC4)cc2)C1 [Example 4, 1-Ethyl-7-[[(1S)-1-[4-[(1-prop-2-enoylazetidin-3-yl)oxymethyl]phenyl]ethyl]amino]-4H-pyrimido[4,5-d][1,3]oxazin-2-one] | 2.98 ± 2.58 | 0.83 ± 1.49 | – | –
5 | C=CC(=O)N1CC2(CN(Cc3ccc([C@H](C)Nc4ncc5c(n4)N(CC(C)C)C(=O)OC5)cc3)C2)C1 [Example 5, 1-Isobutyl-7-[[(1S)-1-[4-[(2-prop-2-enoyl-2,6-diazaspiro[3.3]heptan-6-yl)methyl]phenyl]ethyl]amino]-4H-pyrimido[4,5-d][1,3]oxazin-2-one] | 9.84 ± 8.1 | 7.46 ± 7.52 | – | –
6 | C=CC(=O)N1CCN(c2ccc([C@H](C)Nc3ncc4c(n3)N(C(C)C)C(=O)OC4)cc2)CC1 [Example 6, 1-Isopropyl-7-[[(1S)-1-[4-(4-prop-2-enoylpiperazin-1-yl)phenyl]ethyl]amino]-4H-pyrimido[4,5-d][1,3]oxazin-2-one] | 17.4 ± 1.3 | 25.4 ± 6.32 | – | –
7 | C=CC(=O)N1CC(CCc2ccc([C@H](C)Nc3ncc4c(n3)N(CC)C(=O)OC4)cc2)C1 [Example 7, 1-Ethyl-7-[[(1S)-1-[4-[2-(1-prop-2-enoylazetidin-3-yl)ethyl]phenyl]ethyl]amino]-4H-pyrimido[4,5-d][1,3]oxazin-2-one] | 5.64 ± 0.35 | 8.69 ± 10.2 | – | –
8 | C=CC(=O)N1CCC2(CC1)CN(Cc1ccc([C@H](C)Nc3ncc4c(n3)N(C(C)C)C(=O)OC4)cc1)C2 [Example 8, 1-Isopropyl-7-[[(1S)-1-[4-[(7-prop-2-enoyl-2,7-diazaspiro[3.5]nonan-2-yl)methyl]phenyl]ethyl]amino]-4H-pyrimido[4,5-d][1,3]oxazin-2-one] | 18.9 ± 5.1 | 69.4 ± 24.9 | – | –
9 | C=CC(=O)N1CC(COc2ccc([C@H](C)Nc3ncc4c(n3)N(C(C)C)C(=O)OC4)cc2)C1 [Example 9, 1-Isopropyl-7-[[(1S)-1-[4-[(1-prop-2-enoylazetidin-3-yl)methoxy]-phenyl]ethyl]amino]-4H-pyrimido[4,5-d][1,3]oxazin-2-one] | 3.68 ± 0.57 | 21.2 ± 32.2 | – | –
10 | C=CC(=O)N1CC(N(C)Cc2ccc([C@H](C)Nc3ncc4c(n3)N(CC)C(=O)OC4)cc2)C1 [Example 10, 1-Ethyl-7-[[(1S)-1-[4-[[methyl-(1-prop-2-enoylazetidin-3-yl)amino]methyl]-phenyl]ethyl]amino]-4H-pyrimido[4,5-d][1,3]oxazin-2-one] | 7.14 ± 1.27 | 27.4 ± 18.7 | – | –
11 | C=CC(=O)N1CCN(Cc2ccc([C@H](C)Nc3ncc4c(n3)N([C@H](C)CO)C(=O)OC4)cc2)CC1 [Example 11, 1-[(1R)-2-Hydroxy-1-methyl-ethyl]-7-[[(1S)-1-[4-[(4-prop-2-enoylpiperazin-1-yl)methyl]phenyl]ethyl]amino]-4H-pyrimido[4,5-d][1,3]oxazin-2-one] | 7.35 ± 0.07 | 12.5 ± 21.2 | – | –
12 | C=CC(=O)N1CCC(N(C)Cc2ccc([C@H](C)Nc3ncc4c(n3)N(CC)C(=O)OC4)cc2)CC1 [Example 12, 1-Ethyl-7-[[(1S)-1-[4-[[methyl-(1-prop-2-enoyl-4-piperidyl)amino]-methyl]phenyl]ethyl]amino]-4H-pyrimido[4,5-d][1,3]oxazin-2-one] | – | 6.1 ± 13.3 | – | 13.5 ± 1.1
13 | C=CC(=O)N1CC(OCc2ccc([C@H](C)Nc3ncc4c(n3)N(CC(C)C)C(=O)OC4)cc2)C1 [Example 13, 1-Isobutyl-7-[[(1S)-1-[4-[(1-prop-2-enoylazetidin-3-yl)oxymethyl]phenyl]ethyl]amino]-4H-pyrimido[4,5-d][1,3]oxazin-2-one] | 7.5 ± 0.283 | 4.62 ± 6.65 | – | –
14 | C=CC(=O)N1CC2(CN(Cc3ccc([C@H](C)Nc4ncc5c(n4)N(CC)C(=O)OC5)cc3)C2)C1 [Example 14, 1-Ethyl-7-[[(1S)-1-[4-[(2-prop-2-enoyl-2,6-diazaspiro[3.3]heptan-6-yl)methyl]phenyl]ethyl]amino]-4H-pyrimido[4,5-d][1,3]oxazin-2-one] | 9.75 ± 2.41 | 7 ± 13.3 | – | –
15 | C=CC(=O)N1CC2(CN(Cc3ccc([C@H](C)Nc4ncc5c(n4)N(C(C)C)C(=O)OC5)cc3)C2)C1 [Example 15, 1-Isopropyl-7-[[(1S)-1-[4-[(2-prop-2-enoyl-2,6-diazaspiro[3.3]heptan-6-yl)methyl]phenyl]ethyl]amino]-4H-pyrimido[4,5-d][1,3]oxazin-2-one] | 3.9 | 11.2 ± 6.4 | – | –
16 | C=CC(=O)N1CCN(Cc2ccc([C@H](C)Nc3ncc4c(n3)N(CC)C(=O)OC4)cc2F)CC1 [Example 16, 1-Ethyl-7-[[(1S)-1-[3-fluoro-4-[(4-prop-2-enoylpiperazin-1-yl)methyl]phenyl]ethyl]amino]-4H-pyrimido[4,5-d][1,3]oxazin-2-one] | 5.79 ± 0.57 | 22.7 ± 11.8 | – | –
17 | C=CC(=O)N1CC=C(COc2ccc([C@H](C)Nc3ncc4c(n3)N(CC)C(=O)OC4)cc2)C1 [Example 22, 1-ethyl-7-[[(1S)-1-[4-[(1-prop-2-enoyl-2,5-dihydropyrrol-3-yl)methoxy]phenyl]ethyl]amino]-4H-pyrimido[4,5-d][1,3]oxazin-2-one] | – | 2.15 ± 0.13 | – | –
